# Values joined by “and” are separate entries in the source; they are usually repeats but may differ in a detail not shown here. Equal values may be shown once. Marks after values point to notes of the source that are not given here.
# Key:
# rainbow trout = test: In vivo bioconcentration experiment with a mixture of anionic surfactants, flow-through aquaria, 10 °C, pH 7.8; conditions: for Log BCF: determined with measured concentrations in water; for Concentration in fish: individual fish; for BCF (steady-state): plateau 6-96 h, 95% confidence interval in brackets;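 on Uptake rate constant kU: L kg-1 h-1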
# Procedure: The bioconcentration of a mixture of 10 anionic surfactants was measured in rainbow trout in water at pH 7.8. […] The experiment was conducted in flow-through aquaria with juvenile rainbow trout at 10 °C. Ethical approval for the experiments was obtained from Stockholms […] (decision 9967-2017). The fish, fish housing, fish handling, and procedure for introducing the mixture of […] chemicals were very similar to our previous study with cationic surfactants;[5] details are provided in Text S1. The experiment consisted of a 4-day exposure phase and a 7-day depuration phase. […] Water samples were collected and fish were sacrificed according to the schedule in Table S4. The water samples were collected just prior to the daily removal of feces from the aquarium. Triplicate samples were taken at each time point. […] The water/methanol mixture was analyzed using liquid chromatography-mass spectrometry (LC-MS)/MS as described below for fish. At each fish sampling, five fish were sacrificed. Following stunning and severance of the spinal cord, the whole fish were placed in a polyethylene bag, weighed, and immediately frozen at -20 °C. The weight of the individual fish at sacrifice was 24.0 ± 5.6 g. Three of the five fish from each time point were prioritized for analysis based on proximity to the median fish weight. Each fish was […] homogenized with an Ultra-turrax dispersing device. […] This mixture was homogenized in a bullet blender for 5 min and then placed in an ultrasound bath at 45 °C for 15 min. Following centrifugation for 15 min@3200 RCF, the supernatant was decanted and the extraction was repeated. The extracts were combined. For instrumental analysis, 5 μL of the fish extract or 60 μL of the water/methanol mixture (water samples) was separated on an Acquity UPLC BEH C18 column fitted with a BEH C18 pre-column and analyzed on a TSQ Quantiva triple quadrupole mass spectrometer. The mobile phase was methanol (10 mM ammonium acetate) and Milli-Q-filtered water (10 mM ammonium acetate) (see Table S5 for the liquid chromatography program). To avoid detergent blank peaks originating from cleaning mobile phase bottles, the methanol was prepared directly in the solvent bottle as delivered and Milli-Q was tapped into an empty methanol bottle. Furthermore, a guard column was fitted between the mobile phase and the autosampler to prevent background contamination from disturbing the analysis. All analytes were quantified against the BEHP internal standard, as it gave better reproducibility. […] The central goal of the analysis was to estimate kU and kT as well as the BCF (=kU/kT) from measurements of surfactant concentration in fish and water samples collected at different time points of the experiment. For the fish, only those time points were included for which CF(measured) was above the limit of quantitation (LOQ) in all three fish (data below the LOQ will have a positive bias; including them would result in a negative bias in kT). In this analysis, there exist two sources of uncertainty: first, uncertainty in the actual concentration in water CW at the time of sample collection and second, variability in the concentration in fish around the (expected) surfactant concentrations in fish assumed to follow model (1). We therefore set up a model in which we considered uncertainty in both water and fish measurements simultaneously by assuming a parametric model for the surfactant concentration in the water over time (either linear or quadratic) and accounted for the uncertainty in the corresponding parameters of the water model during the estimation of kU and kT. This was done in a joint Bayesian model that we estimated via Hamiltonian Monte Carlo. […]
# [1] = Baseline screening BCF (0.0125 DMLW, equilibrium partitioning, no biotransformation); conditions: for Log baseline BCF: determined as 0.0125 DMLW
# Excerpt: Recently, the concept of a baseline screening BCF was introduced for surfactants, based on equilibrium partitioning assuming no biotransformation.[19] The baseline screening BCF for the study chemicals exceeded the measured BCF by 1–2.5 orders of magnitude (Table S16), providing further evidence that biotransformation is an important factor influencing the elimination—and thereby the BCF—of the anionic surfactants studied here in rainbow trout. The deviation of PFOA and PFOS from the regression between BCF and DMLW (Figure 1, upper panel) is attributable to them not being biotransformed.
# Table S16: Comparison of the BCF (determined with the measured concentrations in water) and the baseline screening BCF (determined as 0.0125 DMLWa)
# CHEMICAL Log BCF Log baseline BCF Log difference […]
# a Droge, S. T. J.; Scherpenisse, P.; Arnot, J. A.; Armitage, J. M.; McLachlan, M. S.; Nichols, J.; von der Ohe, P.; Bonnell, M.; Hodges, G. Screening the baseline fish bioconcentration potential of various types of surfactants using phospholipid binding data. Environ. Sci.: Processes Impacts
# [2] = determined using nominal concentrations in water
# [3] = measured concentrations in water
# [4] = from measured concentrations in water, Bayesian estimate, 95% credible interval in brackets
# [5] = measured concentrations in water, simpler estimation method (Text S3), 95% confidence intervals in brackets
Structure (SMILES),BCF (rainbow trout; [2]),Log BCF (rainbow trout),"Concentration in fish (rainbow trout; elimination phase, 97 h)","Concentration in fish (rainbow trout; elimination phase, 98 h)","Concentration in fish (rainbow trout; elimination phase, 100 h)","Concentration in fish (rainbow trout; elimination phase, 103 h)","Concentration in fish (rainbow trout; elimination phase, 120 h)","Concentration in fish (rainbow trout; elimination phase, 128 h)","Concentration in fish (rainbow trout; elimination phase, 144 h)","Concentration in fish (rainbow trout; elimination phase, 168 h)","Concentration in fish (rainbow trout; elimination phase, 192 h)","Concentration in fish (rainbow trout; elimination phase, 264 h)","Concentration in fish (rainbow trout; exposure phase, 1 h)","Concentration in fish (rainbow trout; exposure phase, 2 h)","Concentration in fish (rainbow trout; exposure phase, 3 h)","Concentration in fish (rainbow trout; exposure phase, 4 h)","Concentration in fish (rainbow trout; exposure phase, 6 h)","Concentration in fish (rainbow trout; exposure phase, 24 h)","Concentration in fish (rainbow trout; exposure phase, 48 h)","Concentration in fish (rainbow trout; exposure phase, 72 h)",further results
"CCCCCCCCCCS(=O)(=O)O [C10SO3, decylsulfonate]",0.046 L kg-1 ww,-1.38 L kg-1 ww,3.0 ng g-1 ww and 1.5 ng g-1 ww and 1.3 ng g-1 ww,1.5 ng g-1 ww and 1.0 ng g-1 ww and 1.4 ng g-1 ww,5.1 ng g-1 ww and 1.4 ng g-1 ww (2×),0.3 ng g-1 ww (2×) and 0.6 ng g-1 ww,0.50 ng g-1 ww and 0.76 ng g-1 ww and 0.61 ng g-1 ww,0.62 ng g-1 ww and 0.49 ng g-1 ww and 0.99 ng g-1 ww,0.63 ng g-1 ww and 0.33 ng g-1 ww and 5.2 ng g-1 ww,0.49 ng g-1 ww and 0.55 ng g-1 ww and 0.16 ng g-1 ww,0.14 ng g-1 ww and 0.15 ng g-1 ww and 0.22 ng g-1 ww,2.0 ng g-1 ww and 1.9 ng g-1 ww and 0.2 ng g-1 ww,1.1 ng g-1 ww and 2.1 ng g-1 ww and 1.4 ng g-1 ww,1.1 ng g-1 ww (2×) and 7.5 ng g-1 ww,1.5 ng g-1 ww and 1.6 ng g-1 ww and 5.5 ng g-1 ww,2.4 ng g-1 ww and 3.5 ng g-1 ww and 6.5 ng g-1 ww,2.1 ng g-1 ww and 2.0 ng g-1 ww and 1.4 ng g-1 ww,42.8 ng g-1 ww and 1.4 ng g-1 ww (2×),2.4 ng g-1 ww and 3.6 ng g-1 ww and 1.7 ng g-1 ww,3.6 ng g-1 ww and 2.1 ng g-1 ww and 3.0 ng g-1 ww,"Concentration in fish (rainbow trout; exposure phase, 96 h): 3.0 ng g-1 ww (2×) and 2.8 ng g-1 ww; BCF (steady-state) (rainbow trout; [3]): 0.042 ^d (0.034–0.050) L kg^–1 ww; Log difference (baseline BCF vs BCF) [1]: 2.48 L kg-1 ww; Log baseline BCF [1]: 1.11 L kg-1 ww"
"CCCCCCCCCCc1ccc(S(=O)(=O)O)cc1 [C10-1-LAS, 1-n-(p-sulfophenyl)decane]",15.0 L kg-1 ww,1.21 L kg-1 ww,78 ng g-1 ww (2×) and 103 ng g-1 ww,73 ng g-1 ww and 72 ng g-1 ww and 55 ng g-1 ww,74 ng g-1 ww and 57 ng g-1 ww and 60 ng g-1 ww,47 ng g-1 ww and 58 ng g-1 ww and 51 ng g-1 ww,24 ng g-1 ww and 27 ng g-1 ww and 17.2 ng g-1 ww,14.0 ng g-1 ww and 17.0 ng g-1 ww and 18.2 ng g-1 ww,7.6 ng g-1 ww and 6.8 ng g-1 ww and 10.2 ng g-1 ww,4.7 ng g-1 ww and 3.5 ng g-1 ww (2×),1.08 ng g-1 ww and 1.14 ng g-1 ww and 1.40 ng g-1 ww,1.0 ng g-1 ww and 0.7 ng g-1 ww and 0.31 ng g-1 ww,8.9 ng g-1 ww and 6.9 ng g-1 ww and 16.6 ng g-1 ww,11.3 ng g-1 ww and 10.6 ng g-1 ww and 7.2 ng g-1 ww,16.5 ng g-1 ww and 19.7 ng g-1 ww and 16.6 ng g-1 ww,26 ng g-1 ww and 32 ng g-1 ww and 75 ng g-1 ww,38 ng g-1 ww (2×) and 27 ng g-1 ww,86 ng g-1 ww and 91 ng g-1 ww and 64 ng g-1 ww,94 ng g-1 ww and 98 ng g-1 ww and 84 ng g-1 ww,112 ng g-1 ww and 87 ng g-1 ww and 70 ng g-1 ww,"Elimination rate constant kT (rainbow trout; [2]): 0.049 h⁻¹; Uptake rate constant kU (rainbow trout; [2]): 0.74 L/kg/h; Concentration in fish (rainbow trout; exposure phase, 96 h): 113 ng g-1 ww and 104 ng g-1 ww and 110 ng g-1 ww; Elimination rate constant kT (rainbow trout; [4]): 0.047 (0.044–0.050) h^–1; Uptake rate constant kU (rainbow trout; [4]): 0.77 (0.67–0.87) L kg^–1 ww h^–1; diffusion coefficient (D) in the epithelial membrane of the gills (rainbow trout; in vivo): 2.4 × 10^–8 m h^–1; BCF (kinetic) (rainbow trout; kinetic BCF from measured concentrations in water, 95% credible interval in brackets): 16.3 (14.6–18.2) L kg^–1 ww; BCF (rainbow trout; [5]): 14.7 (8) L kg-1 ww; Elimination rate constant kT (rainbow trout; [5]): 0.046 (3) h-1; Uptake rate constant kU (rainbow trout; [5]): 0.67 (8) L kg-1 ww h-1; BCF (rainbow trout; own values): 16.3 L kg^–1; Log difference (baseline BCF vs BCF) [1]: 1.99 L kg-1 ww; Log baseline BCF [1]: 3.20 L kg-1 ww"
"CCCCCCCCCCCS(=O)(=O)O [C11SO3, undecylsulfonate]",0.137 L kg-1 ww,-0.87 L kg-1 ww,5.5 ng g-1 ww and 3.8 ng g-1 ww and 3.2 ng g-1 ww,3.2 ng g-1 ww and 2.8 ng g-1 ww and 30.6 ng g-1 ww,14.1 ng g-1 ww and 2.8 ng g-1 ww and 3.1 ng g-1 ww,2.2 ng g-1 ww and 3.0 ng g-1 ww and 6.7 ng g-1 ww,0.58 ng g-1 ww and 0.87 ng g-1 ww and 0.78 ng g-1 ww,0.53 ng g-1 ww and 0.50 ng g-1 ww and 0.58 ng g-1 ww,0.49 ng g-1 ww and 0.42 ng g-1 ww and 0.53 ng g-1 ww,0.56 ng g-1 ww and 0.41 ng g-1 ww and 0.22 ng g-1 ww,0.10 ng g-1 ww and 0.19 ng g-1 ww (2×),1.49 ng g-1 ww and 0.23 ng g-1 ww and 0.19 ng g-1 ww,3.2 ng g-1 ww and 1.5 ng g-1 ww and 8.4 ng g-1 ww,2.1 ng g-1 ww and 1.9 ng g-1 ww and 1.4 ng g-1 ww,2.9 ng g-1 ww and 3.6 ng g-1 ww and 3.2 ng g-1 ww,3.5 ng g-1 ww and 13.4 ng g-1 ww and 41 ng g-1 ww,4.7 ng g-1 ww and 5.0 ng g-1 ww and 3.8 ng g-1 ww,5.5 ng g-1 ww and 4.2 ng g-1 ww and 3.8 ng g-1 ww,4.4 ng g-1 ww and 5.1 ng g-1 ww and 3.7 ng g-1 ww,7.2 ng g-1 ww and 5.2 ng g-1 ww and 4.9 ng g-1 ww,"Concentration in fish (rainbow trout; exposure phase, 96 h): 8.1 ng g-1 ww and 7.8 ng g-1 ww and 5.3 ng g-1 ww; BCF (steady-state) (rainbow trout; [3]): 0.136 ^d (0.114–0.158) L kg^–1 ww; Log difference (baseline BCF vs BCF) [1]: 2.35 L kg-1 ww; Log baseline BCF [1]: 1.49 L kg-1 ww"

# Reference: publication PMC9118553, “In Vivo Bioconcentration of 10 Anionic Surfactants in Rainbow Trout Explained by In Vitro Data on Partitioning and S9 Clearance” (Environmental Science & Technology, 2022)
